This note sets out measurements from patent US8575156B2, “Cyclic inhibitors of 11β-hydroxysteroid dehydrogenase 1” (Vitae Pharmaceuticals, Inc., priority 2007, dated 2013).

The structures appear in SMILES notation. Like-named read-outs stand apart in the source and are kept apart here.

The target in this assay is 11β-HSD1 (Homo sapiens, UniProt P28845). Nature of the assay: biochemical. Conditions: for IC50: IC50 Range, Biological Test Example 1, microsomes from CHO cells overexpressing human 11β-HSD1; for inhibition at 0.1111 µM: read-out: Average % inhibition at 111.1 nM, Biological Test Example 1, 111.1 nM compound.
Where [1] appears, read: read-out: Average % inhibition at 100 nM, Biological Test Example 1, 100 nM.
Setting [2] is: read-out: Average % inhibition at 100 nM, Biological Test Example 1, 100 nM compound.

Chain of 11β-HSD1 (P28845 whole entry): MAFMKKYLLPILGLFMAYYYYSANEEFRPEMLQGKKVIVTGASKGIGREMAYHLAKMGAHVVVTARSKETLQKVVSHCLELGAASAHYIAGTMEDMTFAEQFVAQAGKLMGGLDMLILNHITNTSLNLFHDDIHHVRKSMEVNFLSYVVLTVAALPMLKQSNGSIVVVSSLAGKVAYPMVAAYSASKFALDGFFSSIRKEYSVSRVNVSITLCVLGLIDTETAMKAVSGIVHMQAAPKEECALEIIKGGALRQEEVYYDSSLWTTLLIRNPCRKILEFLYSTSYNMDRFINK

What is called IC50 is the concentration that gives 50% inhibition. The low end stands for inhibition by little substance, the high end for a need for much substance. By inhibition is commonly meant the drop in the measured response relative to a control, in per cent. On to `CC(O)CC[C@]1(c2ccc(F)cc2)CCN([C@@H](C)c2ccc(Cl)cc2)C(=O)O1` (single isomer, unassigned) [EXAMPLE 383 Isomer 1], for which the IC50 was below 100 nM. In addition, under setting [1], the inhibition at 0.1 µM was determined as 94.7%. `C[C@@H](c1cccc(Cl)c1)N1CC[C@](CCCO)(c2ccc(F)cc2)OC1=O` [EXAMPLE 360, (R)-3-((S)-1-(3-chlorophenyl)ethyl)-6-(4-fluorophenyl)-6-(3-hydroxypropyl)-1,3-oxazinan-2-one] displayed an IC50 below 100 nM. Further, under setting [1], the inhibition at 0.1 µM worked out at 97%. As to `Cc1cc(-c2ccc([C@H](C)N3CCC(C)(c4ccc(F)cc4)OC3=O)cc2)ccn1` (single isomer, unassigned) [EXAMPLE 519 Isomer 1], the IC50 was below 100 nM.

In turn, `CC(O)C[C@]1(c2ccc(F)cc2)CCN([C@@H](C)c2cccc(Br)c2)C(=O)O1` (stereo partly drawn) [EXAMPLE 355, (6S)-3-((S)-1-(3-bromophenyl)ethyl)-6-(4-fluorophenyl)-6-(2-hydroxypropyl)-1,3-oxazinan-2-one] returned an IC50 below 100 nM. Besides, where the note is “read-out: Average % inhibition at 100 nM”, the inhibition at 0.1 µM is 95.5%.

Take `O=C1OC(CC(O)CO)(c2ccccc2)CCN1c1cccc(-c2ccc(F)cc2F)c1` (stereo not drawn) [EXAMPLE 77, 3-(2′,4′-difluorobiphenyl-3-yl)-6-(2,3-dihydroxypropyl)-6-phenyl-1,3-oxazinan-2-one]: the IC50 was below 100 nM and the inhibition at 0.1111 µM was determined as 89.2%. The inhibition at 0.1 µM under setting [2] was found to be 88.7%. Molecule `C[C@@H](c1ccc(C(F)(F)F)cc1)N1CC[C@](CCCO)(c2ccccc2)OC1=O` [EXAMPLE 532, (R)-6-(3-hydroxypropyl)-6-phenyl-3-((S)-1-(4-(trifluoromethyl)phenyl)ethyl)-1,3-oxazinan-2-one] gave an IC50 below 100 nM. Besides, the inhibition at 0.1 µM under setting [1] turned out to be 96.3%. Taken in the same sequence, the figures for `C[C@@H](c1ccc(Cl)c(F)c1)N1CC[C@](CCCO)(c2ccc(F)cc2)OC1=O` [EXAMPLE 498, (R)-3-((S)-1-(4-chloro-3-fluorophenyl)ethyl)-6-(4-fluorophenyl)-6-(3-hydroxypropyl)-1,3-oxazinan-2-one] were below 100 nM and 97.8%. Consider `CC1(c2ccccc2)CCN(c2cccc(-c3ccc(S(=O)(=O)N4CCCC4)cc3)c2)C(=O)O1` (stereo not drawn) [EXAMPLE 16, 6-methyl-6-phenyl-3-(4′-(pyrrolidin-1-ylsulfonyl)biphenyl-3-yl)-1,3-oxazinan-2-one], for which the IC50 lay in the range of 100 to 1000 nM and the inhibition at 0.1111 µM is 35.7%. `C[C@@H](c1ccc(Cl)cc1)N1CC[C@](CC(C)(C)O)(c2ccc(F)cc2)OC1=O` [EXAMPLE 381, (S)-3-((S)-1-(4-chlorophenyl)ethyl)-6-(4-fluorophenyl)-6-(2-hydroxy-2-methylpropyl)-1,3-oxazinan-2-one] gave an IC50 below 100 nM. Further, the inhibition at 0.1 µM under setting [1] came out at 97.2%. Regarding `C[C@@H](c1ccc(Br)cc1)N1CC[C@](CCCN(C)S(C)(=O)=O)(c2ccccc2)OC1=O` [EXAMPLE 514, N-(3-((R)-3-((S)-1-(4-bromophenyl)ethyl)-2-oxo-6-phenyl-1,3-oxazinan-6-yl)propyl)-N-methylmethanesulfonamide], the IC50 is below 100 nM. Also, the inhibition at 0.1 µM under setting [1] was 93.1%. Consider `CC[C@@H](c1ccc(Br)cc1)N1CCC(CCO)(c2ccc(F)cc2)OC1=O` (single isomer, unassigned) [EXAMPLE 143 Isomer 1], for which the concentration for half-maximal inhibition (IC50) was below 100 nM and the inhibition at 0.1111 µM turned out to be 54.4%. As for `CC[C@@H](c1ccc(-c2ccc(F)cc2)cc1)N1CC[C@](CCCO)(c2ccc(F)cc2)OC1=O` [EXAMPLE 252, (R)-3-((S)-1-(4′-fluorobiphenyl-4-yl)propyl)-6-(4-fluorophenyl)-6-(3-hydroxypropyl)-1,3-oxazinan-2-one], the concentration for half-maximal inhibition (IC50) was below 100 nM. In addition, the inhibition at 0.1 µM under setting [2] came to 99%. Regarding `O=C1OC(CCO)(c2ccccc2)CCN1c1cccc(Br)c1` (stereo not drawn) [EXAMPLE 74, 3-(3-bromophenyl)-6-(2-hydroxyethyl)-6-phenyl-1,3-oxazinan-2-one], the 50% inhibitory concentration (IC50) was below 100 nM and the inhibition at 0.1111 µM came to 70%.

As for `C[C@@H](c1ccc(-c2ccc(F)cc2)cc1)N1CC[C@](CCN2CCC2)(c2ccc(F)cc2)OC1=O` [EXAMPLE 462, (R)-6-(2-(azetidin-1-yl)ethyl)-3-((S)-1-(4′-fluorobiphenyl-4-yl)ethyl)-6-(4-fluorophenyl)-1,3-oxazinan-2-one], the IC50 was below 100 nM. The inhibition at 0.1 µM under setting [1] is 72.3%. Consider `C[C@@H](c1ccc(-c2ccc(F)cc2)cc1)N1CC[C@](CCCNS(C)(=O)=O)(c2ccccc2)OC1=O` [EXAMPLE 270, N-(3-((R)-3-((S)-1-(4′-fluorobiphenyl-4-yl)ethyl)-2-oxo-6-phenyl-1,3-oxazinan-6-yl)propyl)methanesulfonamide], for which the concentration for half-maximal inhibition (IC50) was below 100 nM. The inhibition at 0.1 µM under setting [2] is 96.1%.

`CC(O)C[C@]1(c2ccc(F)cc2)CCN([C@@H](C)c2ccc(C(F)(F)F)cc2)C(=O)O1` (single isomer, unassigned) [EXAMPLE 388 Isomer 1]: the IC50 was below 100 nM. Also, the inhibition at 0.1 µM under setting [1] is 92.8%.

For the molecule `C=CC[C@@]1(c2ccc(F)cc2)CCN([C@@H](C)c2ccc(-c3ccc(F)cc3F)cc2)C(=O)O1` (single isomer, unassigned) [EXAMPLE 111 Isomer 1], the IC50 is below 100 nM and the inhibition at 0.1111 µM was determined as 90.9%. For `C[C@@H](c1ccc(-c2ccc(F)cc2F)cc1)N1CC[C@](CCC(=O)O)(c2ccccc2)OC1=O` [EXAMPLE 503, 3-((R)-3-((S)-1-(2′,4′-difluorobiphenyl-4-yl)ethyl)-2-oxo-6-phenyl-1,3-oxazinan-6-yl)propanoic acid], the IC50 is below 100 nM. In addition, under setting [1], the inhibition at 0.1 µM was found to be 90.1%. In turn, `C[C@@H](c1ccc(-c2ccc(F)cc2)cc1)N1CC[C@](CCN2CCCC2)(c2ccc(F)cc2)OC1=O` [EXAMPLE 464, (R)-3-((S)-1-(4′-fluorobiphenyl-4-yl)ethyl)-6-(4-fluorophenyl)-6-(2-(pyrrolidin-1-yl)ethyl)-1,3-oxazinan-2-one] returned an IC50 below 100 nM. Also, the inhibition at 0.1 µM under setting [1] was determined as 80.2%. `C=CC[C@]1(c2ccc(F)cc2)CCN([C@@H](C)c2ccc(N3CCOCC3)cc2)C(=O)O1` [EXAMPLE 217, (R)-6-allyl-6-(4-fluorophenyl)-3-((S)-1-(4-morpholinophenyl)ethyl)-1,3-oxazinan-2-one] displayed an IC50 below 100 nM. The inhibition at 0.1 µM under setting [2] worked out at 88%.

Take `CC1(c2ccccc2)CCN(c2cccc(-c3ccncc3)c2)C(=O)O1` (stereo not drawn) [EXAMPLE 33, 6-methyl-6-phenyl-3-(3-(pyridin-4-yl)phenyl)-1,3-oxazinan-2-one]: the inhibition at 0.1111 µM amounted to 37.1%. For `O=C1OC(CCO)(c2ccc(F)cc2)CCN1c1cccc(-c2ccc(F)cc2F)n1` (stereo not drawn) [EXAMPLE 108, 3-(6-(2,4-difluorophenyl)pyridin-2-yl)-6-(4-fluorophenyl)-6-(2-hydroxyethyl)-1,3-oxazinan-2-one], the IC50 is below 100 nM and the inhibition at 0.1111 µM was found to be 55.4%.

For the molecule `C=CCC1(c2cccs2)CCN([C@@H](C)c2ccc(-c3ccc(F)cc3)cc2)C(=O)O1` (single isomer, unassigned) [EXAMPLE 160 Isomer 1], the half-inhibitory concentration (IC50) was below 100 nM and the inhibition at 0.1111 µM was 93.5%. Take `CC[C@@H](c1ccc(OC(F)F)cc1)N1CC[C@](CCC(N)=O)(c2ccc(F)cc2)OC1=O` [EXAMPLE 326, 3-((R)-3-((S)-1-(4-(difluoromethoxy)phenyl)propyl)-6-(4-fluorophenyl)-2-oxo-1,3-oxazinan-6-yl)propanamide]: the IC50 was below 100 nM. Besides, the inhibition at 0.1 µM under setting [1] amounted to 97.7%.

As for `CC1(c2ccccc2)CCN(c2cccc(-c3cccc(CO)c3)c2)C(=O)O1` (stereo not drawn) [EXAMPLE 39, 3-(3′-(hydroxymethyl)biphenyl-3-yl)-6-methyl-6-phenyl-1,3-oxazinan-2-one], the IC50 lay within 100 to 1000 nM and the inhibition at 0.1111 µM was 24.8%. For the molecule `C[C@@H](c1ccc(-c2ccc(F)cc2F)cc1)N1CC[C@](CC(=O)O)(c2ccc(F)cc2)OC1=O` [EXAMPLE 174, 2-((S)-3-((S)-1-(2′,4′-difluorobiphenyl-4-yl)ethyl)-6-(4-fluorophenyl)-2-oxo-1,3-oxazinan-6-yl)acetic acid], the IC50 lay in the range of 100 to 1000 nM and the inhibition at 0.1111 µM turned out to be 48%. Taken in the same sequence, the figures for `C=CC[C@@]1(c2cccs2)CCN([C@@H](C)c2ccc(-c3ccc(F)cc3F)cc2)C(=O)O1` [EXAMPLE 165, (S)-6-allyl-3-((S)-1-(2′,4′-difluorobiphenyl-4-yl)ethyl)-6-(thiophen-2-yl)-1,3-oxazinan-2-one] were below 100 nM and 92.9%.

Molecule `C[C@@H](c1ccc(Br)cc1)N1CC[C@](CCC#N)(c2ccc(F)cc2)OC1=O` [EXAMPLE 524, 3-((R)-3-((S)-1-(4-bromophenyl)ethyl)-6-(4-fluorophenyl)-2-oxo-1,3-oxazinan-6-yl)propanenitrile] showed an IC50 below 100 nM. Moreover, under setting [1], the inhibition at 0.1 µM came to 97.9%. `COc1ccc([C@H](C)N2CC[C@](CCC(C)(C)O)(c3ccc(F)cc3)OC2=O)cc1` [EXAMPLE 426, (R)-6-(4-fluorophenyl)-6-(3-hydroxy-3-methylbutyl)-3-((S)-1-(4-methoxyphenyl)ethyl)-1,3-oxazinan-2-one] had an IC50 below 100 nM. The inhibition at 0.1 µM under setting [1] came out at 82.5%. Take `CC1(c2ccccc2)CCN(c2cccc(-c3cccc(NS(C)(=O)=O)c3)c2)C(=O)O1` (stereo not drawn) [EXAMPLE 29, N-(3′-(6-methyl-2-oxo-6-phenyl-1,3-oxazinan-3-yl)biphenyl-3-yl)methanesulfonamide]: the IC50 lay in the range of 100 to 1000 nM and the inhibition at 0.1111 µM is 29.8%. Taken in the same sequence, the figures for `C=CC1(c2ccc(F)cc2)CCN([C@@H](C)c2ccccc2)C(=O)O1` (single isomer, unassigned) [EXAMPLE 113 Isomer 1] were below 100 nM and 83.2%. The molecule `C=CC[C@]1(c2ccc(F)cc2)CCN([C@@H](C)c2ccc(C#N)cc2)C(=O)O1` [EXAMPLE 192, 4-((S)-1-((R)-6-allyl-6-(4-fluorophenyl)-2-oxo-1,3-oxazinan-3-yl)ethyl)benzonitrile] showed a 50% inhibitory concentration (IC50) below 100 nM. Under setting [2], the inhibition at 0.1 µM stood at 70.7%.
